Laboratory results taken from US8143263B2, “Therapeutic agents” (Astrazeneca AB, priority 2008, dated 2012).

target: T1, recombinant human pancreatic GLK (Homo sapiens, UniProt P35557); test: biochemical
T1 sequence (P35557 1-465): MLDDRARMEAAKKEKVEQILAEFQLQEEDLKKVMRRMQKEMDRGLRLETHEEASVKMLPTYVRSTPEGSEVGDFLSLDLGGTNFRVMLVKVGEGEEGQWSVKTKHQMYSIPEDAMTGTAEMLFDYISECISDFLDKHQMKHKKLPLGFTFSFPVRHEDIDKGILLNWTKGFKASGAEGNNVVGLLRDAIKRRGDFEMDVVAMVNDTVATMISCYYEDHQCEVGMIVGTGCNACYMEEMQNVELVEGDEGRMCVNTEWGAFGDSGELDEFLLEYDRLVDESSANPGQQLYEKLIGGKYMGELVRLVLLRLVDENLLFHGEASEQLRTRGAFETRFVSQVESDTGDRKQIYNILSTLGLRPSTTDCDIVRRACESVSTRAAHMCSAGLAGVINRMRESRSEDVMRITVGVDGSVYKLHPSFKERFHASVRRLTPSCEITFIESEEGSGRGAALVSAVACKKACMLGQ

Structure (SMILES) | EC50
COCC[C@H](Oc1ncnc2c1cnn2-c1ccccc1OC)C(=O)Nc1ccc(C)cn1 [Example 24, (S)-4-methoxy-2-{[1-(2-methoxyphenyl)-1H-pyrazolo[3,4-d]pyrimidin-4-yl]oxy}-N-(5-methylpyridin-2-yl)butanamide] | 120 nM
COCCC(Oc1ncnc2c1cnn2-c1ccc(F)cc1F)C(=O)Nc1ccc(C)cn1 (centres unmarked) [Example 25, 2-{[1-(2,4-Difluorophenyl)-1H-pyrazolo[3,4-d]pyrimidin-4-yl]oxy}-4-methoxy-N-(5-methylpyridin-2-yl)butanamide] | 1200 nM
COCC[C@@H](Oc1ncnc2c1cnn2-c1ccc(F)cc1F)C(=O)Nc1ccc(C)cn1 [Example 26, (R)-2-{[1-(2,4-Difluorophenyl)-1H-pyrazolo[3,4-d]pyrimidin-4-yl]oxy}-4-methoxy-N-(5-methylpyridin-2-yl)butanamide] | 35000 nM
COCC[C@H](Oc1ncnc2c1cnn2-c1ccc(F)cc1F)C(=O)Nc1ccc(C)cn1 [Example 27, (S)-2-{[1-(2,4-difluorophenyl)-1H-pyrazolo[3,4-d]pyrimidin-4-yl]oxy}-4-methoxy-N-(5-methylpyridin-2-yl)butanamide] | 1000 nM
COCCC(Oc1ncnc2c1cnn2-c1cccc(C)c1)C(=O)Nc1ccc(C)cn1 (centres unmarked) [Example 31, 4-Methoxy-2-{[1-(3-methylphenyl)-1H-pyrazolo[3,4-d]pyrimidin-4-yl]oxy}-N-(5-methylpyridin-2-yl)butanamide] | 350 nM
COCC[C@@H](Oc1ncnc2c1cnn2-c1cccc(C)c1)C(=O)Nc1ccc(C)cn1 [Example 32, (R)-4-Methoxy-2-{[1-(3-methylphenyl)-1H-pyrazolo[3,4-d]pyrimidin-4-yl]oxy}-N-(5-methylpyridin-2-yl)butanamide] | ≥ 100000 nM
COCC[C@H](Oc1ncnc2c1cnn2-c1cccc(C)c1)C(=O)Nc1ccc(C)cn1 [Example 33, (S)-4-methoxy-2-{[1-(3-methylphenyl)-1H-pyrazolo[3,4-d]pyrimidin-4-yl]oxy}-N-(5-methylpyridin-2-yl)butanamide] | > 1700 nM
COCCC(Oc1ncnc2c1cnn2-c1ccccn1)C(=O)Nc1ccc(C)cn1 (centres unmarked) [Example 34, 4-Methoxy-N-(5-methylpyridin-2-yl)-2-[(1-pyridin-2-yl-1H-pyrazolo[3,4-d]pyrimidin-4-yl)oxy]butanamide] | 1900 nM
COCCC(Oc1ncnc2c1cnn2-c1ccccc1OC)C(=O)Nc1nc(C)cs1 (centres unmarked) [Example 35, 4-Methoxy-2-{[1-(2-methoxyphenyl)-1H-pyrazolo[3,4-d]pyrimidin-4-yl]oxy}-N-(4-methyl-1,3-thiazol-2-yl)butanamide] | 2100 nM
COCC[C@@H](Oc1ncnc2c1cnn2-c1ccccc1OC)C(=O)Nc1nc(C)cs1 [Example 36, (R)-4-Methoxy-2-{[1-(2-methoxyphenyl)-1H-pyrazolo[3,4-d]pyrimidin-4-yl]oxy}-N-(4-methyl-1,3-thiazol-2-yl)butanamide] | ≥ 100000 nM
COCC[C@H](Oc1ncnc2c1cnn2-c1ccccc1OC)C(=O)Nc1nc(C)cs1 [Example 37, (S)-4-methoxy-2-{[1-(2-methoxyphenyl)-1H-pyrazolo[3,4-d]pyrimidin-4-yl]oxy}-N-(4-methyl-1,3-thiazol-2-yl)butanamide] | 1300 nM
CCCCC(Oc1ncnc2c1cnn2-c1ccccc1Cl)C(=O)Nc1ccc(C)cn1 (centres unmarked) [Example 38, 2-{[1-(2-chlorophenyl)-1H-pyrazolo[3,4-d]pyrimidin-4-yl]oxy}-N-(5-methylpyridin-2-yl)hexanamide] | 20 nM
CCCCC(Oc1ncnc2c1cnn2C)C(=O)Nc1ccc(C)cn1 (centres unmarked) [Example 39, 2-[(1-methyl-1H-pyrazolo[3,4-d]pyrimidin-4-yl)oxy]-N-(5-methylpyridin-2-yl)hexanamide] | 11000 nM
CCCCC(Oc1ncnc2c1cnn2-c1ccccc1Cl)C(=O)Nc1cnc(C)cn1 (centres unmarked) [Example 40, 2-{[1-(2-chlorophenyl)-1H-pyrazolo[3,4-d]pyrimidin-4-yl]oxy}-N-(5-methylpyrazin-2-yl)hexanamide] | 140 nM
CCC(Oc1ncnc2c1cnn2-c1ccccc1OC)C(=O)Nc1ccc(C)cn1 (centres unmarked) [Example 42, 2-{[1-(2-Methoxyphenyl)-1H-pyrazolo[3,4-d]pyrimidin-4-yl]oxy}-N-(5-methylpyridin-2-yl)butanamide] | 410 nM
CC[C@@H](Oc1ncnc2c1cnn2-c1ccccc1OC)C(=O)Nc1ccc(C)cn1 [Example 43, (2R)-2-{[1-(2-Methoxyphenyl)-1H-pyrazolo[3,4-d]pyrimidin-4-yl]oxy}-N-(5-methylpyridin-2-yl)butanamide] | 4200 nM
COc1ccccc1-n1ncc2c(OC(C)C(=O)Nc3ccc(C)cn3)ncnc21 (centres unmarked) [Example 44, 2-{[1-(2-Methoxyphenyl)-1H-pyrazolo[3,4-d]pyrimidin-4-yl]oxy}-N-(5-methylpyridin-2-yl)propanamide] | 3400 nM
Cc1ccc(NC(=O)[C@H](CCN(C)C)Oc2ncnc3c2cnn3-c2ccccc2Cl)nc1 [Example 47, (2S)-2-{[1-(2-chlorophenyl)-1H-pyrazolo[3,4-d]pyrimidin-4-yl]oxy}-4-(dimethylamino)-N-(5-methylpyridin-2-yl)butanamide] | 1000 nM
CC(=O)NCC(Oc1ncnc2c1cnn2-c1ccccc1Cl)C(=O)Nc1nc(C)cs1 (centres unmarked) [Example 48, 3-Acetamido-2-{[1-(2-chlorophenyl)-1h-pyrazolo[3,4-d]pyrimidin-4-yl]oxy}-n-(4-methyl-1,3-thiazol-2-yl)propanamide] | 11000 nM
Cc1ccc(NC(=O)C(CCC(=O)O)Oc2ncnc3c2cnn3-c2ccccc2Cl)nc1 (centres unmarked) [Example 49, 4-{[1-(2-chlorophenyl)-1H-pyrazolo[3,4-d]pyrimidin-4-yl]oxy}-5-[(5-methylpyridin-2-yl)amino]-5-oxopentanoic acid] | 34000 nM
Cc1ccc(NC(=O)C(CCC(N)=O)Oc2ncnc3c2cnn3-c2ccccc2Cl)nc1 (centres unmarked) [Example 50, 2-{[1-(2-chlorophenyl)-1H-pyrazolo[3,4-d]pyrimidin-4-yl]oxy}-N1-(5-methylpyridin-2-yl)pentanediamide] | 590 nM
CNC(=O)CCC(Oc1ncnc2c1cnn2-c1ccccc1Cl)C(=O)Nc1ccc(C)cn1 (centres unmarked) [Example 51, 2-{[1-(2-chlorophenyl)-1H-pyrazolo[3,4-d]pyrimidin-4-yl]oxy}-N5-methyl-N1-(5-methylpyridin-2-yl)pentanediamide] | 4400 nM
COCCOCCC(Sc1ncnc2c1cnn2-c1ccccc1Cl)C(=O)Nc1nc(C)cs1 (centres unmarked) [Example 52, 2-{[1-(2-chlorophenyl)-1H-pyrazolo[3,4-d]pyrimidin-4-yl]thio}-4-(2-methoxyethoxy)-N-(4-methyl-1,3-thiazol-2-yl)butanamide] | 2900 nM
COCCC(Sc1ncnc2c1cnn2-c1ccccc1Cl)C(=O)Nc1nc(C)cs1 (centres unmarked) [Example 53, 2-{[1-(2-chlorophenyl)-1H-pyrazolo[3,4-d]pyrimidin-4-yl]thio}-4-methoxy-N-(4-methyl-1,3-thiazol-2-yl)butanamide] | 780 nM
CCC(C)C(Sc1ncnc2c1cnn2-c1ccccc1Cl)C(=O)Nc1nc(C)cs1 (centres unmarked) [Example 54, 2-{[1-(2-chlorophenyl)-1H-pyrazolo[3,4-d]pyrimidin-4-yl]thio}-3-methyl-N-(4-methyl-1,3-thiazol-2-yl)pentanamide] | 4000 nM
CCC(C)C(Sc1ncnc2c1cnn2-c1ccccc1Cl)C(=O)Nc1ccon1 (centres unmarked) [Example 55, 2-{[1-(2-chlorophenyl)-1H-pyrazolo[3,4-d]pyrimidin-4-yl]thio}-N-isoxazol-3-yl-3-methylpentanamide] | > 20000 nM
